One assay relates to Hes5 mRNA. Description: qRT-PCR of Hes5 in deafened mature cochlea after round window administration. In kind it is in vivo, mouse. How it is done: 4-week-old mice were exposed free-field, awake and unrestrained, in a small reverberant chamber (22). Acoustic trauma was produced by a 2 h exposure to an 8-16 kHz octave band noise presented at 116 dB SPL. The exposure stimulus was generated by a custom white-noise source, filtered (Brickwall Filter with a 60 dB/octave slope), amplified (Crown power amplifier), and delivered (JBL compression driver) through an exponential horn fitted securely to a hole in the top of a reverberant box.
4-week-old mice weighing 12 to 16 g were used. Before surgery, the animals were anesthetized with ketamine (20 mg/kg, i.p.) and xylazine (100 mg/kg, i.p.), and an incision was made posterior to the pinna near the external meatus after local administration of lidocaine (1%). […]
The organs of Corti were dissected in HBSS (Invitrogen) and stored in RNAlater (Ambion) at −80° C. until further use. […] Samples were analyzed in 96 wells in triplicate by qPCR (Applied Biosystems 7900HT), and PCR thermal cycling conditions were as follows: initial denaturation at 95° C. for 2 min, denaturation at 95° C. for 15 s, annealing/extension at 60° C. for 1 min for 45 cycles. […] Relative gene expression was analyzed by using the ΔΔCT method. Gene expression was calculated relative to 18S RNA, and the amount of cDNA applied was adjusted so that the Ct value for 18S RNA was between 8 and 11. […]
A general note: Quantitative PCR measures a nucleic acid by following its amplification.

Assay [1] concerns organ of Corti explants from Pou4f3-Cre; Mos-iCsp3 double transgenic mice. Description: Organ of Corti explants after dimerizer-induced hair cell ablation. It is filed as cell-based, mouse. The text has this: For the experiments using inner ear spheres, C57BL/6 (Jackson Labs) or Math1-nGFP reporter mouse (19) (a gift from Jane Johnson, University of Texas) of both sexes were used. To create organ of Corti explants with ablated hair cells, Mos-iCsp3 mice (20) were crossed with Pou4f3-Cre mice (6) (a gift from Douglas Vetter, Tufts University). For all in vivo experiments, we used 4-week-old Cre reporter line, mT/mG (Jackson Labs), crossed to a Sox2-CreER mouse (47) (a gift from Konrad Hochedlinger, Mass General Hospital). After genotyping, double transgenic animals were used for lineage tracing. We used young adult wild-type littermates of the mT/mG; Sox2-CreER mice to prevent strain effects in the response to noise, which are known to vary depending on background (22, 48). Mice were genotyped by PCR. […]
For explants, the organs of Corti were fixed for 15 min with 4% paraformaldehyde in PBS. […] Primary antibodies were detected with secondary antibodies conjugated with Alexa 488 and 647 (Molecular Probes). The samples were stained with rhodamine phalloidin (Invitrogen) for 15 min and viewed by confocal fluorescence microscopy (TCS SP5, Leica).
Cell counting for spheres was performed with MetaMorph software. The cell number was determined from DAPI- or Hoechst-positive nuclei. […] For explants, inner hair cells, outer hair cells, and supporting cells in the outer hair cell region were counted on cochlear whole mounts. […] High-power images of the full-length cochlea or cochlear explant cultures were assembled and analyzed in PhotoShop CS4 (Adobe). ImageJ software (NIH) was used to measure the total length of cochlear whole mounts and the length of individual counted segments. The total number of inner hair cells, outer hair cells, and supporting cells in the outer hair cell region was counted in each of four cochlear segments of 1200-1400 μm (apical, mid-apical, mid-basal, and basal). Density (cells per 100 μm) was then calculated for each segment. […] The number of Sox2-lineage-positive cells identified by GFP was counted by the same method. […]

The source of these data is patent US12161647B2, “Treating hearing loss” (Massachusetts Eye and Ear Infirmary, priority 2012, dated 2024).

For the compound `C[C@H](NC(=O)[C@@H](O)c1cc(F)cc(F)c1)C(=O)N[C@@H]1C(=O)N(C)c2ccccc2-c2ccccc21` [LY411575, N-2((2S)-2-(3,5-difluorophenyl)-2-hydroxyethanoyl)-N1-((7S)-5-methyl-6-oxo-6,7-dihydro-5H-dibenzo[b,d]azepin-7-yl)-l-alaninamide], the “noise-induced Hes5 mRNA induction” value in the assay on Hes5 mRNA (round window niche, 4 mM 1 μl, 1 d after noise, at 1 d, p<0.01 vs control cochlea) is reported as “completely blocked”. In the assay on Hes5 mRNA (three days after LY411575 treatment), the Hes5 expression level result is reported as “unchanged from the control cochlea”. For the same compound, in assay [1] (any group), the “number of inner hair cells” value is “no significant differences”. Further, the “number of myosin VIIa-positive (hair) cells in the outer hair cell region” value in assay [1] (hair cell-ablated explants, cultured 3 d, p<0.05) is given as “increased”. The “number of Sox2-positive (supporting) cells” value in assay [1] (mid-apex and mid-base of the cochlea, p<0.05) is listed as “decrease”.
